Changes are numbered by the printed parent chain.
Tests used:
FLT3 I836S = target: T1, FLT3 I836S (Homo sapiens, UniProt P36888, I836S); assay: FLT3 autophosphorylation, immunoprecipitation/Western blot, I836S; format: cell-based; details: I836S mutant, concentrations of 200 nM, 1 h
T1 construct: expressed in transfected cells; host or cells: BaF3
T1 sequence (P36888 27-993 I836S): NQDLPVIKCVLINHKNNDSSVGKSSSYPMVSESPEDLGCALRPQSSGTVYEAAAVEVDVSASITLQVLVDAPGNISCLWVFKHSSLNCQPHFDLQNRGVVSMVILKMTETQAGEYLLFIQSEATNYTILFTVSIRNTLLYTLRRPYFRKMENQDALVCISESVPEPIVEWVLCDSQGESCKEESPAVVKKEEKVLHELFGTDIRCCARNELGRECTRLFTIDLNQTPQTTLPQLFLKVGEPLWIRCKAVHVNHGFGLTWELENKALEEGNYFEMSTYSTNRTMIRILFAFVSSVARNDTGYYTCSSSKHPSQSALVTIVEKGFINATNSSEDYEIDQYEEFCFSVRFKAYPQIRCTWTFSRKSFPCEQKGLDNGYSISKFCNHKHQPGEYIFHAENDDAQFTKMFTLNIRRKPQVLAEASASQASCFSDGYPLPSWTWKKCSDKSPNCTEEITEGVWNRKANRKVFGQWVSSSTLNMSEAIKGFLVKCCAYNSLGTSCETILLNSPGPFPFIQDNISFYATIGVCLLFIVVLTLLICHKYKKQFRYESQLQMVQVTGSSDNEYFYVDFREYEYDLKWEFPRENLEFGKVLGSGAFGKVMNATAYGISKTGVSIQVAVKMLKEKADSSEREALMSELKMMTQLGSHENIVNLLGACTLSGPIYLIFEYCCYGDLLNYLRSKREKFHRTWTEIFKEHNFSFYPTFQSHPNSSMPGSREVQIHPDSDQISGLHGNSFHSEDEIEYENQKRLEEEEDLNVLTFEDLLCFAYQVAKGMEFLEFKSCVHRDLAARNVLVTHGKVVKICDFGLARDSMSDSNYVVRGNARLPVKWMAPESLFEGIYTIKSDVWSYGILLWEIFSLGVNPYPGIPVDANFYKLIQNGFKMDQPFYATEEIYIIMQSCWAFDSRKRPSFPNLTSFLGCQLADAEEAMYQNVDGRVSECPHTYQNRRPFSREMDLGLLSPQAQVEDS
Method: (§1) Activated FLT3 expression was measured by performing immunoprecipitation, SDS-PAGE and Western blotting as previously described. Specifically, 10^7 cells were washed in medium and treated with inhibitor for 1 h followed by stimulation with 25 ng/ml of FLT3 ligand for 15 minutes where indicated. Cells were washed twice with ice-cold PBS and lysed in 300 µl of NP-40 lysis buffer (150 mM NaCl, 20 mM TrisHCl (pH7.4), 10% glycerol, 1% NP-40, 10 mM EDTA, 100 mM NaF) with 2 mM Na3VO4 and protease inhibitors (Complete Tablets, Roche, Mannheim, Germany) at 4°C for 30 m. Cell lysate was harvested by centrifugation at 13,000 × g for 30 m at 4°C. FLT3 S-18 antibody was incubated with 500 µg lysate overnight at 4°C followed by immunoprecipitation with protein A-agarose beads for 2 h. Beads were washed once in Tris buffered saline with 1% Tween-20 (TBST) and twice in TBS. Samples were boiled in sodium dodecyl sulfate (SDS) sample buffer prior to separating in a 8% SDS-polyacrylamide gel (SDS-PAGE). Proteins were transferred to a polyvinyl diflouride (PVDF) membrane (Millipore, Bedford, MA, USA) and detected by 4G10 phosphotyrosine antibody and anti-FLT3 S-18 antibody. FLT3 was visualized using the Odyssey Infra Red Imaging System from Li-Cor (Lincoln, NE, USA) using AlexaFluor 680 goat anti-mouse and AlexaFluor 800 goat anti-rabbit antibodies. […]

FLT3 I836T = target: T2, FLT3 I836T (Homo sapiens, UniProt P36888, I836T); assay: FLT3 autophosphorylation, immunoprecipitation/Western blot, I836T; format: cell-based; details: I836T mutant, concentrations of 200 nM, 1 h
T2 construct: expressed in transfected cells; host or cells: BaF3
T2 sequence (P36888 27-993 I836T): T1 sequence (P36888 27-993 I836S) with S810T
Method: as §1

Row | Structure (SMILES) | Inhibition of FLT3 phosphorylation (FLT3 I836S) | Inhibition of FLT3 phosphorylation (FLT3 I836T)
1 | CC1(COc2ccc3c(c2)ncn3-c2ccc3cccc(N4CCC(N)CC4)c3n2)COC1 [Crenolanib] | significant autophosphorylation still observable | significant autophosphorylation still observable
2 | Cc1ccc(C(=O)Nc2ccc(CN3CCN(C)CC3)c(C(F)(F)F)c2)cc1C#Cc1cnc2cccnn12 [Ponatinib] | significant autophosphorylation still observable | significant autophosphorylation still observable

Source: article PMC5355235, “FLT3 activating mutations display differential sensitivity to multiple tyrosine kinase inhibitors” (Oncotarget, 2017)
